From patent US9670161B2, “5-fluoro-N-(pyridin-2-yl)pyridin-2-amine derivatives containing a sulfone group” (BAYER PHARMA AKTIENGESELLSCHAFT, priority 2012, dated 2017) come the findings set out here.

The target in test [1] is CDK2/CycE (Homo sapiens (Human), UniProt P24941). Nature of the test: CDK2/CycE kinase assay (TR-FRET, 10 μM ATP). It counts as biochemical. The conditions noted are these: Method 2a. From the text:
2a. CDK2/CycE Kinase Assay:
CDK2/CycE-inhibitory activity of compounds of the present invention was quantified employing the CDK2/CycE TR-FRET assay as described in the following paragraphs:
Recombinant fusion proteins of GST and human CDK2 and of GST and human CycE, expressed in insect cells (Sf9) and purified by Glutathion-Sepharose affinity chromatography, were purchased from ProQinase GmbH (Freiburg, Germany). As substrate for the kinase reaction biotinylated peptide biotin-Ttds-YISPLKSPYKISEG (C-terminus in amid form) was used which can be purchased e.g. form the company JERINI Peptide Technologies (Berlin, Germany).
For the assay 50 nl of a 100 fold concentrated solution of the test compound in DMSO was pipetted into a black low volume 384 well microtiter plate (Greiner Bio-One, Frickenhausen, Germany), 2 μl of a solution of CDK2/CycE in aqueous assay buffer [50 mM Tris/HCl pH 8.0, 10 mM MgCl2, 1.0 mM dithiothreitol, 0.1 mM sodium ortho-vanadate, 0.01% (v/v) Nonidet-P40 (Sigma)] were added and the mixture was incubated for 15 min at 22° C. to allow pre-binding of the test compounds to the enzyme before the start of the kinase reaction. Then the kinase reaction was started by the addition of 3 μl of a solution of adenosine-tri-phosphate (ATP, 16.7 μM=>final conc. in the 5 μl assay volume is 10 μM) and substrate (1.25 μM=>final conc. in the 5 μl assay volume is 0.75 μM) in assay buffer and the resulting mixture was incubated for a reaction time of 25 min at 22° C. The concentration of CDK2/CycE was adjusted depending of the activity of the enzyme lot and was chosen appropriate to have the assay in the linear range, typical concentrations were in the range of 130 ng/mL. The reaction was stopped by the addition of 5 μl of a solution of TR-FRET detection reagents (0.2 μM streptavidine-XL665 [Cisbio Bioassays, Codolet, France] and 1 nM anti-RB(pSer807/pSer811)-antibody from BD Pharmingen [#558389] and 1.2 nM LANCE EU-W1024 labeled anti-mouse IgG antibody [Perkin-Elmer, product no. AD0077]) in an aqueous EDTA-solution (100 mM EDTA, 0.2% (w/v) bovine serum albumin in 100 mM HEPES/NaOH pH 7.0).
The resulting mixture was incubated 1 h at 22° C. to allow the formation of complex between the phosphorylated biotinylated peptide and the detection reagents. Subsequently the amount of phosphorylated substrate was evaluated by measurement of the resonance energy transfer from the Eu-chelate to the streptavidine-XL. Therefore, the fluorescence emissions at 620 nm and 665 nm after excitation at 350 nm was measured in a TR-FRET reader, e.g. a Rubystar (BMG Labtechnologies, Offenburg, Germany) or a Viewlux (Perkin-Elmer). The ratio of the emissions at 665 nm and at […] was taken as the measure for the amount of phosphorylated substrate. The data were normalised (enzyme reaction without inhibitor=0% inhibition, all other assay components but no enzyme=100% inhibition).
A general note: Time-resolved FRET reads energy transfer from a long-lived donor to a nearby acceptor.

Test [2] concerns HeLa, human cervical tumour cells. Nature of the test: Proliferation assay, HeLa (crystal violet). It counts as cell-based. The conditions noted are these: 96 h, 4 days, read-out: Inhibition of HeLa cell proliferation IC50. As for the experimental part: Cultivated tumour cells (HeLa, human cervical tumour cells, ATCC CCL-2; NCI-H460, human non-small cell lung carcinoma cells, ATCC HTB-177; A2780, human ovarian carcinoma cells, ECACC #93112519; DU 145, hormone-independent human prostate carcinoma cells, ATCC HTB-81; HeLa-MaTu-ADR, multidrug-resistant human cervical carcinoma cells, EPO-GmbH Berlin; Caco-2, human colorectal carcinoma cells, ATCC HTB-37; B16F10, mouse melanoma cells, ATCC CRL-6475) were plated at a density of 5,000 cells/well (DU145, HeLa-MaTu-ADR), 3,000 cells/well (NCI-H460, HeLa), 2,500 cells/well (A2780), 1,500 cells/well (Caco-2), or 1,000 cells/well (B16F10) in a 96-well multititer plate in 200 μL of their respective growth medium supplemented 10% fetal calf serum. After 24 hours, the cells of one plate (zero-point plate) were stained with crystal violet (see below), while the medium of the other plates was replaced by fresh culture medium (200 μl), to which the test substances were added in various concentrations (0 μM, as well as in the range of 0.001-10 μM; the final concentration of the solvent dimethyl sulfoxide was 0.5%). The cells were incubated for 4 days in the presence of test substances. Cell proliferation was determined by staining the cells with crystal violet: the cells were fixed by adding 20 μl/measuring point of an 11% glutaric aldehyde solution for 15 minutes at room temperature. After three washing cycles of the fixed cells with water, the plates were dried at room temperature. The cells were stained by adding 100 μl/measuring point of a 0.1% crystal violet solution (pH 3.0). After three washing cycles of the stained cells with water, the plates were dried at room temperature. The dye was dissolved by adding 100 μl/measuring point of a 10% acetic acid solution. The extinction was determined by photometry at a wavelength of 595 nm. The change of cell number, in percent, was calculated by normalization of the measured values to the extinction values of the zero-point plate (=0%) and the extinction of the untreated (0 μm) cells (=100%). The IC50 values (inhibitory concentration at 50% of maximal effect) were determined by means of a 4 parameter fit.

`COc1cc(F)ccc1-c1cc(Nc2cc(CS(C)(=O)=O)cc(C(F)(F)F)n2)ncc1F` [Example 4, 5-Fluoro-4-(4-fluoro-2-methoxyphenyl)-N-{4-[(methylsulfonyl)methyl]-6-(trifluoromethyl)pyridin-2-yl}pyridin-2-amine]: the IC50 in test [1] stood at 0.052 µM; in test [2], 0.016 µM.
On the same counts, the results for `COc1cc(F)ccc1-c1cc(Nc2cc(CS(C)(=O)=O)ccn2)ncc1F` [Example 1, 5-Fluoro-4-(4-fluoro-2-methoxyphenyl)-N-{4-[(methylsulfonyl)methyl]pyridin-2-yl}pyridin-2-amine] are 0.17 µM and 0.084 µM.
`COc1cc(F)ccc1-c1cc(Nc2cc(CS(C)(=O)=O)cc(C)n2)ncc1F` [Example 2, 5-Fluoro-4-(4-fluoro-2-methoxyphenyl)-N-{6-methyl-4-[(methylsulfonyl)methyl]pyridin-2-yl}pyridin-2-amine]: the IC50 in test [1] was found to be 0.07 µM; in test [2] it was 0.037 µM.
The corresponding values for `COc1cc(F)ccc1-c1cc(Nc2cc(CS(C)(=O)=O)cc(C(F)F)n2)ncc1F` [Example 5, N-{6-(Difluoromethyl)-4-[(methylsulfonyl)methyl]pyridin-2-yl}-5-fluoro-4-(4-fluoro-2-methoxyphenyl)pyridin-2-amine] are 0.007 µM and < 0.03 µM.
On the same counts, the results for `COc1cc(F)ccc1-c1cc(Nc2cc(CS(C)(=O)=O)cc(F)n2)ncc1F` [Example 3, 5-Fluoro-4-(4-fluoro-2-methoxyphenyl)-N-{6-fluoro-4-[(methylsulfonyl)methyl]pyridin-2-yl}pyridin-2-amine] are 0.065 µM and 0.1 µM.
